# Assay results taken from patent US12358932B2, “Chemical compounds” (BORAH, INC., priority 2019, dated 2025).
# Molecular target: T1, Recombinant human PDE4B (Homo sapiens, UniProt Q07343)
# T1 construct: aa 305-end; GST (N); made in house; host or cells: Sf9 insect cells (baculovirus)
# Experiment: PDE4B Phosphodiesterase Assay
# Type: biochemical
# Parameters: key to Activity Note: PDE4: The (+) symbols identify a compound of the present disclosure with the noted target activity; +*: The (*) symbols indicate preferential activity, where the greater number identifies the most preferred compounds; +**: The (*) symbols indicate preferential activity, where the greater number identifies the most preferred compounds; +***: The (*) symbols indicate preferential activity, where the greater number identifies the most preferred compounds
# Conditions: compound list; + = noted target activity
# Experimental: The assay is based on the fluorescence polarization measuring AMP/GMP production as a result of the enzyme activity by displacement of Tracer binding to the AMP/GMP antibody. • Reaction Buffer: 10 mM Tris-HCl, pH 7.5, 5 mM MgCl2, 0.01% Brij 35, 1 mM DTT and 1% DMSO. • Enzyme: Recombinant human PDE4B (Gene Accession #NM_002600; aa 305-end) was expressed by baculovirus in Sf9 insect cells using an N-terminal GST tag. Mw=78 kDa. • Substrate: 1 μM cAMP • Detection: Transcreener® AMP2/GMP2 Antibody AMP2/GMP2 AlexaFluor 633 Tracer Reaction Procedure: • 1. Prepared indicated enzyme and substrate in freshly prepared Reaction Buffer • 2. Delivered enzyme solution into the reaction well • 3. Delivered compounds in 100% DMSO into the enzyme solution by Acoustic technology (Echo550; nanoliter range), incubated for 10 min at room temperature • 4. Delivered substrate solution into the reaction well to initiate the reaction • 5. Incubated for 1 h at room temperature • 6. Added detection mixture (Tracer and antibody in the stop buffer) to stop the reaction and incubated for 90 min with gentle mixing. The fluorescence polarization was measured at Ex/Em 620/688.
# Data Analysis: The FP signals were converted into nM product based on an AMP/GMP standard curve and calculated % Enzyme activity relative to DMSO control by Excel. The curve fit was performed using GraphPad prism.
# T1 sequence (Q07343 305-736 limits assumed): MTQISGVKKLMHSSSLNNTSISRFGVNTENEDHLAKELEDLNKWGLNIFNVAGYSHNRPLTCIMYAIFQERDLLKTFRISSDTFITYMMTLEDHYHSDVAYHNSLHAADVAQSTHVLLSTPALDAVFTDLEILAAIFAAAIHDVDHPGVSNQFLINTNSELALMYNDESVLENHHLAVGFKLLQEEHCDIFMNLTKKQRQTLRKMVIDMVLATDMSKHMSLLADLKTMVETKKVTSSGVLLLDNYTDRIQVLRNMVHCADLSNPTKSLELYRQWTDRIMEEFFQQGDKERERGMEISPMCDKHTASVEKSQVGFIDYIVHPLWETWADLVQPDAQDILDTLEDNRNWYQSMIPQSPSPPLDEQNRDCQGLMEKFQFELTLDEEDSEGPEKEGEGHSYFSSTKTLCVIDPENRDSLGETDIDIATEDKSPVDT
row,Activity Note: PDE4,SMILES
1,+,"CCCNc1nc(Nc2ccc3c(c2)COB3O)ncc1Cl [5-((5-chloro-4-(propylamino)pyrimidin-2-yl)amino)benzo[c][1,2]oxaborol-1(3H)-ol]"
2,+,"CCC(CC)Nc1nc(Nc2ccc3c(c2)COB3O)ncc1C#N [2-((1-hydroxy-1,3-dihydrobenzo[c][1,2]oxaborol-5-yl)amino)-4-(pentan-3-ylamino) pyrimidine-5-carbonitrile]"
3,+,"CCC(CC)Nc1nc(Nc2cc(F)c3c(c2)COB3O)ncc1C(F)(F)F [7-fluoro-5-((4-(pentan-3-ylamino)-5-(trifluoromethyl)pyrimidin-2-yl)amino)benzo[c][1,2]oxaborol-1(3H)-ol]"
4,+,"Cc1cnc(Nc2ccc3c(c2)COB3O)nc1Nc1cccc2c1C(=O)N(CCF)C2 [2-(2-fluoroethyl)-7-((2-((1-hydroxy-1,3-dihydrobenzo[c][1,2]oxaborol-5-yl)amino)-5-methylpyrimidin-4-yl)amino)isoindolin-1-one]"
5,+,"Cc1cnc(Nc2ccc3c(c2)COB3O)nc1NCc1ccc(F)cc1 [5-((4-((4-fluorobenzyl)amino)-5-methylpyrimidin-2-yl)amino)benzo[c][1,2]oxaborol-1(3H)-ol]"
6,+,"CCCNc1nc(Nc2ccc3c(c2)COB3O)ncc1C(F)(F)F [5-((4-(propylamino)-5-(trifluoromethyl)pyrimidin-2-yl)amino)benzo[c][1,2]oxaborol-1(3H)-ol]"
7,+,"Cc1cnc(Nc2ccc3c(c2)COB3O)nc1Nc1ccccc1Cl [5-((4-((2-chlorophenyl)amino)-5-methylpyrimidin-2-yl)amino)benzo[c][1,2]oxaborol-1(3H)-ol]"
8,+,"Cc1cnc(Nc2ccc3c(c2)COB3O)nc1Nc1ccccc1 [5-((5-methyl-4-(phenylamino)pyrimidin-2-yl)amino)benzo[c][1,2]oxaborol-1(3H)-ol]"
9,+,"CCCNc1nc(Nc2ccc3c(c2)COB3O)ncc1C=O [2-((1-hydroxy-1,3-dihydrobenzo[c][1,2]oxaborol-5-yl)amino)-4-(propylamino)pyrimidine-5-carbaldehyde]"
10,+,"OB1OCc2cc(Nc3ncc(F)c(NC4CCCC4)n3)ccc21 [5-((4-(cyclopentylamino)-5-fluoropyrimidin-2-yl)amino)benzo[c][1,2]oxaborol-1(3H)-ol]"
11,+,"Cc1cnc(Nc2ccc3c(c2)COB3O)nc1Nc1cccc(CO)c1 [5-((4-((3-(hydroxymethyl)phenyl)amino)-5-methylpyrimidin-2-yl)amino)benzo[c][1,2]oxaborol-1(3H)-ol]"
12,+,"CCCNc1nc(Nc2ccc3c(c2)COB3O)ncc1C [5-((5-methyl-4-(propylamino)pyrimidin-2-yl)amino)benzo[c][1,2]oxaborol-1(3H)-ol]"
13,+,"CCC(CCOC)Nc1nc(Nc2ccc3c(c2)COB3O)ncc1C(F)(F)F (stereo not drawn) [5-((4-((1-methoxypentan-3-yl)amino)-5-(trifluoromethyl)pyrimidin-2-yl)amino)benzo[c][1,2]oxaborol-1(3H)-ol]"
14,+,"OB1OCc2cc(Nc3ncc(Cl)c(NC4CCCC4)n3)cc(F)c21 [5-((5-chloro-4-(cyclopentylamino)pyrimidin-2-yl)amino)-7-fluorobenzo[c][1,2]oxaborol-1(3H)-ol]"
15,+,"CCCC(CC)Nc1nc(Nc2ccc3c(c2)COB3O)ncc1C(F)(F)F (stereo not drawn) [5-((4-(hexan-3-ylamino)-5-(trifluoromethyl)pyrimidin-2-yl)amino)benzo[c][1,2]oxaborol-1(3H)-ol]"
16,+,"Cc1cnc(Nc2ccc3c(c2)COB3O)nc1NC(C)c1ccccc1 (stereo not drawn) [5-((5-methyl-4-((1-phenylethyl)amino)pyrimidin-2-yl)amino)benzo[c][1,2]oxaborol-1(3H)-ol]"
17,+,"OB1OCc2cc(Nc3ncc(C(F)(F)F)c(NC4CCCCC4)n3)ccc21 [5-((4-(cyclohexylamino)-5-(trifluoromethyl)pyrimidin-2-yl)amino)benzo[c][1,2]oxaborol-1(3H)-ol]"
18,+,"OB1OCc2cc(Nc3ncc(Cl)c(NC4CCCCC4)n3)ccc21 [5-((5-chloro-4-(cyclohexylamino)pyrimidin-2-yl)amino)benzo[c][1,2]oxaborol-1(3H)-ol]"
19,+,"Cc1cnc(Nc2ccc3c(c2)COB3O)nc1OC1CCCC1 [5-((4-(cyclopentyloxy)-5-methylpyrimidin-2-yl)amino)benzo[c][1,2]oxaborol-1(3H)-ol]"
20,+,"Cc1cnc(N(C)c2ccc3c(c2)COB3O)nc1OC1CCCCC1 [drawing 151, 5-((4-(cyclohexyloxy)-5-methylpyrimidin-2-yl)(methyl)amino)benzo[c][1,2]oxaborol-1(3H)-ol]"

row,Activity Note: PDE4,SMILES
1,+,"OB1OCc2cc(Nc3ncc(F)c(NC4CCCCC4)n3)ccc21 [5-((4-(cyclohexylamino)-5-fluoropyrimidin-2-yl)amino)benzo[c][1,2]oxaborol-1(3H)-ol]"
2,+,"OB1OCc2cc(Nc3nccc(NC4CCCC4)n3)ccc21 [5-((4-(cyclopentylamino)pyrimidin-2-yl)amino)benzo[c][1,2]oxaborol-1(3H)-ol]"
3,+,"Cc1cnc(Nc2ccc3c(c2)COB3O)nc1NC1CCCC1 [5-((4-(cyclopentylamino)-5-methylpyrimidin-2-yl)amino)benzo[c][1,2]oxaborol-1(3H)-ol]"
4,+,"OB1OCc2cc(Nc3ncc(Cl)c(NCCC4CC4)n3)ccc21 [5-((5-chloro-4-((2-cyclopropylethyl)amino)pyrimidin-2-yl)amino)benzo[c][1,2]oxaborol-1(3H)-ol]"
5,+,"Cc1cnc(Nc2cc(F)c3c(c2)COB3O)nc1Nc1ccccc1 [7-fluoro-5-((5-methyl-4-(phenylamino)pyrimidin-2-yl)amino)benzo[c][1,2]oxaborol-1(3H)-ol]"
6,+,"Cc1cnc(Nc2ccc3c(c2)COB3O)nc1NCc1ccccc1 [5-((4-(benzylamino)-5-methylpyrimidin-2-yl)amino)benzo[c][1,2]oxaborol-1(3H)-ol]"
7,+,"Cc1cnc(Nc2ccc3c(c2)COB3O)nc1NC1CCC1 [5-((4-(cyclobutylamino)-5-methylpyrimidin-2-yl)amino)benzo[c][1,2]oxaborol-1(3H)-ol]"
8,+,"CCCNc1nc(Nc2ccc3c(c2)COB3O)ncc1F [5-((5-fluoro-4-(propylamino)pyrimidin-2-yl)amino)benzo[c][1,2]oxaborol-1(3H)-ol]"
9,+,"CCC(CC)Nc1nc(Nc2ccc3c(c2)COB3O)ncc1F [5-((5-fluoro-4-(pentan-3-ylamino)pyrimidin-2-yl)amino)benzo[c][1,2]oxaborol-1(3H)-ol]"
10,+,"Cc1cnc(Nc2ccc3c(c2)COB3O)nc1NC1CC1 [5-((4-(cyclopropylamino)-5-methylpyrimidin-2-yl)amino)benzo[c][1,2]oxaborol-1(3H)-ol]"
11,+,"CCc1ccccc1Nc1nc(Nc2ccc3c(c2)COB3O)ncc1C [5-((4-((2-ethylphenyl)amino)-5-methylpyrimidin-2-yl)amino)benzo[c][1,2]oxaborol-1(3H)-ol]"
12,+,"CCOC(=O)c1cccc(Nc2nc(Nc3ccc4c(c3)COB4O)ncc2C)c1 [ethyl 3-((2-((1-hydroxy-1,3-dihydrobenzo[c][1,2]oxaborol-5-yl)amino)-5-methylpyrimidin-4-yl)amino)benzoate]"
13,+,"Cc1cnc(Nc2ccc3c(c2)COB3O)nc1NC1CCOC(O)C1 (stereo not drawn) [5-((4-((2-hydroxytetrahydro-2H-pyran-4-yl)amino)-5-methylpyrimidin-2-yl)amino)benzo[c][1,2]oxaborol-1(3H)-ol]"
14,+,"Cc1cnc(Nc2ccc3c(c2)COB3O)nc1SC1CCCCC1 [5-((4-(cyclohexylthio)-5-methylpyrimidin-2-yl)amino)benzo[c][1,2]oxaborol-1(3H)-ol]"
15,+,"CS(=O)(=O)c1nc(Nc2ccc3c(c2)COB3O)ncc1Cl [5-((5-chloro-4-(methylsulfonyl)pyrimidin-2-yl)amino)benzo[c][1,2]oxaborol-1(3H)-ol]"
16,+,"Cc1cnc(Nc2ccc3c(c2)COB3O)nc1NCc1cccc(F)c1 [5-((4-((3-fluorobenzyl)amino)-5-methylpyrimidin-2-yl)amino)benzo[c][1,2]oxaborol-1(3H)-ol]"
17,+,"CCC(CC)Sc1nc(Nc2ccc3c(c2)COB3O)ncc1C [5-((5-methyl-4-(pentan-3-ylthio)pyrimidin-2-yl)amino)benzo[c][1,2]oxaborol-1(3H)-ol]"
18,+,"Cc1cnc(Nc2ccc3c(c2)COB3O)nc1NC1CCC(C)CC1 (stereo not drawn) [5-((5-methyl-4-((4-methylcyclohexyl)amino)pyrimidin-2-yl)amino)benzo[c][1,2]oxaborol-1(3H)-ol]"
19,+,"CCC(CC)Nc1nc(Nc2ccc3c(c2)COB3O)ncc1C [5-((5-methyl-4-(pentan-3-ylamino)pyrimidin-2-yl)amino)benzo[c][1,2]oxaborol-1(3H)-ol]"
